For one data set, the system named is HCoV-OC43. Briefly: MTT test, HCoV-OC43 in Vero-76 cells. The data set is classed as cell-based. The note with it: Betacoronavirus 1, OC43, Vero 76, read-out: IC50 (HCoV-OC43).
Data set [1] relates to SARS-CoV-2 clinical isolate 35245. Put plainly: Plaque reduction assay, SARS-CoV-2 35245. The data set is classed as cell-based. The note with it: Severe acute respiratory syndrome coronavirus 2, read-out: Antiviral activity IC50 against coronaviruses, SARS-CoV-2 clinical isolate 35245, PR.
Data set [2] deals with SARS-CoV-2 clinical isolate VR PV10734. Briefly: Plaque reduction assay, SARS-CoV-2 VR PV10734 in Vero E6 cells. The data set is classed as cell-based. The note with it: Severe acute respiratory syndrome coronavirus 2, Vero C1008, mean ± SD, read-out: Antiviral activity IC50 against coronaviruses, SARS-CoV-2 clinical isolate VR PV10734, PR. How it is done:
(§1) Vero E6 cells were incubated in the presence of PDSTP and reference compounds (100.0, 20.0, 4.0, and 0.8 μM concentrations) for 1 h at 37°C in a 5% CO2 and then infected for 1 h with 250 μL of the corresponding virus (SARS-CoV-2 PV10734 or HCoV-229E) dilutions to obtain 50–100 PFU/well. The plates were then incubated for 1 h at 37°C in a 5% CO2 atmosphere. Following the removal of the unabsorbed virus, 400 μL of the medium (D-MEM with L-glutamine, 4,500 mg/L D-glucose, and 1% inactivated FBS) containing 0.75% methyl-cellulose (M0512, viscosity 4,000 cP, Sigma-Aldrich, United States) and the serial dilutions of the compounds were added and incubated for 4 (SARS-CoV-2) or 2 (HCoV-229E) days at 37°C in a 5% CO2 atmosphere. Subsequently, the cells were fixed and stained with a 0.2% crystal violet solution (V5265, Sigma-Aldrich, United States) and then the number of plaques was calculated. The degree of cell growth/viability and viral multiplication at each drug concentration tested was expressed as a percentage of the untreated control. Concentrations resulting in 50% inhibition (CC50 or EC50) were determined using linear regression analysis.

Data set [3] in a line: Cytotoxicity (MTT test) in Vero E6 cell line. In kind it is cell-based, African Green Monkey (Cercopithecus aethiops). The note with it: African green monkey, mean ± SD, three independent experiments. How it is done:
(§2) The microtetrazolium test (MTT test) was used to study the cytotoxicity of the compounds. Vero cells were seeded in 96-well plates at an initial density of 3×10^5 cells/mL, in Gibco Dulbecco’s Modified Eagle Medium supplemented with L-glutamine and 25 mg/L kanamycin, and 10 % fetal bovine serum (FBS) (DMEM, Thermo Fisher Scientific, Waltham, MA USA). Cell cultures were then incubated at 37 °C in a 5 % CO2 atmosphere, in the absence or presence of serial dilutions of test compounds. The test medium used for the cytotoxic assay as well as for the antiviral assay contained 1 % of the appropriate serum. Cell viability was determined after 72 h at 37 °C by the MTT method as previously reported. The cell viability was expressed as a percentage of the control. The 50% cytotoxic concentration (CC50) of each compound was defined as the concentration of the compound that reduced the absorbance (OD570) of the treated cells to 50% when compared with that of untreated cells. CC50 mean values were calculated from at least three independent experiments.

A short description of data set [4]: Cytotoxicity (MTT test) in Vero-76 cells. The data set is classed as cell-based, African Green Monkey (Cercopithecus aethiops). The note with it: African green monkey. The procedure: as §2
A further data set concerns HCoV-229E. Put plainly: Plaque reduction assay, HCoV-229E in Vero E6 cells. In kind it is cell-based. The note with it: Human coronavirus 229E, Vero C1008, Vero E6, mean ± SD, read-out: Antiviral activity IC50 against coronaviruses, HCoV-229E, PR. How it is done: as §1
Data set [5] relates to SARS-CoV-2 clinical isolate 35245. Briefly: Microtetrazolium (MTT) test, SARS-CoV-2 35245. In kind it is cell-based. The note with it: Severe acute respiratory syndrome coronavirus 2, read-out: Antiviral activity IC50 against coronaviruses, SARS-CoV-2 clinical isolate 35245, MTT. How it is done:
The compound’s activity against OC43 and SARS-CoV-235245 was based on the inhibition of virus-induced cytopathogenicity in acutely infected Vero-76 cells (MOI 0.01). Briefly, Vero-76 cells were seeded in 96-well plates at a density of 3 × 10^4 cells/well and incubated in a growth medium in a 5% CO2 at 37°C overnight. Cell monolayers were then infected with 50 μL of the appropriate viral dilution in maintenance medium [D-MEM and MEM-Earl (Gibco, Thermo Fisher Scientific, MA United States) with L-glutamine (Gibco), 1 mM sodium pyruvate (Gibco), and 0.025 g/L kanamycin (Gibco), supplemented with 0.5% inactivated FBS (Harlan Sera-Lab, Loughborough, United Kingdom), respectively] to give an MOI of 0.01, without or with serial dilutions of test samples. After 6 (HCoV-OC43) and 4/5 (SARS-CoV-2) days of incubation at 37°C, the extent of cell viability was quantified using a tetrazolium-based colorimetric method, in which the reduction of 3-(4,5-dimethylthiazol-2-yl)-2,5-diphenyl-tetrazolium bromide (MTT) by mitochondrial dehydrogenases to a soluble colored formazan was measured using a spectrophotometer (Infinity 200, Tecan Austria GmbH, Austria) at 570 nm, as previously reported ([Sanna et al., 2020]).

Another data set deals with SARS-COV-2 PV10734. Briefly: Time-of-addition and cell pre-treatment assay in Vero cells. The data set is classed as cell-based.

These results are taken from paper PMC11931052, “Efficacy of dispirotripiperazine PDSTP in a golden Syrian hamster model of SARS-CoV-2 infection” (Frontiers in Microbiology, 2025).

As to `CCN(CCO)CCCC(C)Nc1ccnc2cc(Cl)ccc12` (centres unmarked) [HDQ, Hydroxychloroquine, reference compound], the IC50 in the data set with HCoV-OC43 is 9.8 ± 1.7 µM; in data set [1], 2300 ± 700 nM; in data set [2], 2400 ± 700 nM; in the data set on HCoV-229E, 1.6 ± 0.5 µM; in data set [5], 11 ± 2.9 µM. For the same compound, the CC50 at 72 h in data set [3] (Vero E6 cells) and in data set [4] (Vero-76 cells) was 40 ± 5 µM each time.

As to `CCC(CC)COC(=O)[C@H](C)N[P@](=O)(OC[C@H]1O[C@@](C#N)(c2ccc3c(N)ncnn23)[C@H](O)[C@@H]1O)Oc1ccccc1` [RMD, Remdesivir], the IC50 in data set [2] was found to be 1600 ± 300 nM; in the data set with HCoV-229E, 6 ± 2 µM. The cytotoxic concentration (CC50) at 72 h in data set [3] and in data set [4] was above 100 µM throughout. For the same compound, the “Antiviral activity after the SARS-CoV-2 entry process” value in the data set on SARS-COV-2 PV10734 was “exerted its antiviral activity”. The “Antiviral activity, pre-treatment and early stages of infection” value in the data set with SARS-COV-2 PV10734 is on record as “did not affect the early events of the viral life cycle”.

On to heparin, for which the “Inhibitory effect at the later stages of infection” value in the data set with SARS-COV-2 PV10734 (addition at 4 and 6 hpi) is listed as “barely noticeable”.
